Our source for the IC50 values is US10858347B2, “Multicyclic compounds and uses thereof” (Karyopharm Therapeutics Inc., priority 2015, dated 2020).

One assay concerns Z138 cells. Put plainly: MTT cell proliferation assay, Z138 cells. Particulars: Z138 cells (mature B-cell acute lymphoblastic leukemia cell line), approximately 64-72 hours incubation. In kind it is cell-based, human. Here is the method:
(§1) The MTT cell proliferation assay was used to study the cytotoxic properties of the compounds. The assay was performed according to the method described by Roche Molecular Biochemicals, with minor modifications. The assay is based on the cleavage of the tetrazolium salt, MTT, in the presence of an electron-coupling reagent. The water-insoluble formazan salt produced must be solubilized in an additional step. Cells grown in a 96-well tissue culture plate were incubated with the MTT solution for approximately 4 hours. After this incubation period, a water-insoluble formazan dye formed. After solubilization, the formazan dye was quantitated using a scanning multi-well spectrophotometer (ELISA reader). […] The cells were seeded at 5,000-10,000 cells in each well of 96-well plate in 100 μL of fresh culture medium and were allowed to attach overnight. The stock solutions of the compounds were diluted in 100 μL cell culture medium to obtain eight concentrations of each test compound, ranging from 1 nM to 30 μM. […] All optical densities were measured at 490 nm using a Vmax Kinetic Microplate Reader (Molecular Devices). In most cases, the assay was performed in duplicate and the results were presented as a mean percent inhibition to the negative control±SE. The following formula was used to calculate the percent of inhibition: Inhibition (%)=(1−(ODo/OD))×100.
(§2) The compounds were tested against MS751, Z138 and 3T3 cells. The MS751 cell line is derived from a metastasis to lymph node of human cervix from a patient diagnosed with squameous cell carcinoma of the cervix. The Z138 cell line is a mature B-cell acute lymphoblastic leukemia cell line derived from a patient with chronic lumphocytic leukemia. 3T3 cells are standard fibroblast cells; they were originally isolated from Swiss mouse embryo tissue.
(In general: Tetrazolium assays rely on reduction of a dye to a coloured formazan, in cell work by metabolically active cells.)

The test system of another assay is 3T3 cells. In words: MTT cell proliferation assay, 3T3 cells. In kind it is cell-based. As to conditions: 3T3 cells (standard fibroblast cells, Swiss mouse embryo), approximately 64-72 hours incubation. Here is the method:
as §1, §2

The next assay has as its system MS751 cells. Put plainly: MTT cell proliferation assay, MS751 cells. In kind it is cell-based. As to conditions: MS751 cells (human cervix squamous cell carcinoma, lymph node metastasis); approximately 64-72 hours incubation. The method, then: as §1, §2

Where two headings read alike, the source gives them in different places.

Turning to “1-((6-aminopyridin- 3-yl)methyl)-3-(2-((4- (4,4-difluoropiperidine- 1-carbonyl)-4″- fluoro-[1,1′:3′,1″- terphenyl]-4′- yl)oxy)ethyl)urea [Compound 124]”, the IC50 (as a rule, the concentration needed to halve the response being measured) was less than 0.1 µM in the assay on Z138 cells (read-out: Z-138 MTT (IC50; μM)) and greater than 10 µM with 3T3 cells.

Take `Nc1ccc(CNC(=O)NCc2cc3cc(-c4ccc(C(=O)N5CCC(F)(F)CC5)cc4)cc(-c4ccc(F)cc4)c3o2)cn1` [Compound 100, 1-((6-aminopyridin-3-yl)methyl)-3-((5-(4-(4,4-difluoropiperidine-1-carbonyl)phenyl)-7-(4-fluorophenyl)benzofuran-2-yl)methyl)urea]: the IC50 with MS751 cells is less than 0.1 µM; in the assay on Z138 cells (Homo sapiens, Z-138), less than 0.1 µM; with 3T3 cells (NIH3T3) it was 0.1 to 5 µM.

As for `Nc1ccc(NC(=O)NCc2cc3cc(-c4ccc(C(=O)N5CCC(F)(F)CC5)cc4)cc(-c4ccc(F)cc4)c3o2)cn1` [Compound 101, 1-(6-aminopyridin-3-yl)-3-((5-(4-(4,4-difluoropiperidine-1-carbonyl)phenyl)-7-(4-fluorophenyl)benzofuran-2-yl)methyl)urea], the IC50 in the assay on MS751 cells is 0.1 to 5 µM; with Z138 cells (Homo sapiens, Z-138) it was 0.1 to 5 µM; in the assay on 3T3 cells (NIH3T3), greater than 10 µM.

For `O=C(NCc1cc2cc(-c3ccc(C(=O)N4CCC(F)(F)CC4)cc3)cc(-c3ccc(F)cc3)c2o1)N1Cc2ccncc2C1` [Compound 102, N-((5-(4-(4,4-difluoropiperidine-1-carbonyl)phenyl)-7-(4-fluorophenyl)benzofuran-2-yl)methyl)-1H-pyrrolo[3,4-c]pyridine-2(3H)-carboxamide], the IC50 in the assay with MS751 cells was less than 0.1 µM; in the assay on Z138 cells (Homo sapiens, Z-138), less than 0.1 µM; in the assay with 3T3 cells (NIH3T3), 0.1 to 5 µM.

On to `O=C(NCc1cccnc1)NCc1cc2cc(-c3ccc(C(=O)N4CCC(F)(F)CC4)cc3)cc(-c3ccc(F)cc3)c2o1` [Compound 104, 1-((5-(4-(4,4-difluoropiperidine-1-carbonyl)phenyl)-7-(4-fluorophenyl)benzofuran-2-yl)methyl)-3-(pyridin-3-ylmethyl)urea], for which the IC50 in the assay with Z138 cells (Homo sapiens, Z-138) was less than 0.1 µM; with 3T3 cells (NIH3T3) it was 0.1 to 5 µM.

As for `O=C(NCc1cc2cc(-c3ccc(C(=O)N4CCC(F)(F)CC4)cc3)cc(C(F)(F)F)c2o1)N1Cc2ccncc2C1` [Compound 105, N-((5-(4-(4,4-difluoropiperidine-1-carbonyl)phenyl)-7-(trifluoromethyl)benzofuran-2-yl)methyl)-1H-pyrrolo[3,4-c]pyridine-2(3H)-carboxamide], the concentration for half-maximal inhibition (IC50) with Z138 cells (Homo sapiens, Z-138) is 0.1 to 5 µM; in the assay on 3T3 cells (NIH3T3), greater than 10 µM.

Consider `O=C(NCc1cc2cc(-c3ccc(C(=O)N4CC(F)(F)C4)cc3)cc(C(F)(F)F)c2o1)N1Cc2ccncc2C1` [Compound 106, N-((5-(4-(3,3-difluoroazetidine-1-carbonyl)phenyl)-7-(trifluoromethyl)benzofuran-2-yl)methyl)-1H-pyrrolo[3,4-c]pyridine-2(3H)-carboxamide], for which the IC50 was greater than 10 µM with Z138 cells (Homo sapiens, Z-138) and greater than 10 µM in the assay with 3T3 cells (NIH3T3).

As for `CN(Cc1cc2cc(-c3ccc(C(=O)N4CCC(F)(F)CC4)cc3)cc(-c3ccc(F)cc3)c2o1)C(=O)N1Cc2ccncc2C1` [Compound 109, N-((5-(4-(4,4-difluoropiperidine-1-carbonyl)phenyl)-7-(4-fluorophenyl)benzofuran-2-yl)methyl)-N-methyl-1H-pyrrolo[3,4-c]pyridine-2(3H)-carboxamide], the half-maximal inhibitory concentration (IC50) in the assay with Z138 cells (Homo sapiens, Z-138) was less than 0.1 µM; in the assay on 3T3 cells (NIH3T3), 0.1 to 5 µM.

As to `O=C(NCc1cc2cc(-c3ccc(C(=O)N4CCC(F)(F)CC4)cn3)cc(-c3ccc(F)cc3)c2o1)N1Cc2ccncc2C1` [Compound 110, N-((5-(5-(4,4-difluoropiperidine-1-carbonyl)pyridin-2-yl)-7-(4-fluorophenyl)benzofuran-2-yl)methyl)-1H-pyrrolo[3,4-c]pyridine-2(3H)-carboxamide], the IC50 in the assay on Z138 cells (Homo sapiens, Z-138) is less than 0.1 µM; in the assay on 3T3 cells (NIH3T3), less than 0.1 µM.

With `O=C(NCc1cc2cc(-c3ccc(C(=O)N4CCC(F)(F)CC4)cc3)cc(-c3ccc(F)cc3)c2s1)N1Cc2ccncc2C1` [Compound 111, N-((5-(4-(4,4-difluoropiperidine-1-carbonyl)phenyl)-7-(4-fluorophenyl)benzo[b]thiophen-2-yl)methyl)-1H-pyrrolo[3,4-c]pyridine-2(3H)-carboxamide], the IC50 in the assay with Z138 cells (Homo sapiens, Z-138) is less than 0.1 µM; in the assay on 3T3 cells (NIH3T3), greater than 10 µM.

With `Nc1ccc(CNC(=O)NCc2cc3cc(-c4ccc(C(=O)N5CCC(F)(F)CC5)cc4)cc(-c4ccc(F)cc4F)c3o2)cn1` [Compound 112, 1-((6-aminopyridin-3-yl)methyl)-3-((7-(2,4-difluorophenyl)-5-(4-(4,4-difluoropiperidine-1-carbonyl)phenyl)benzofuran-2-yl)methyl)urea], the IC50 in the assay with Z138 cells (Homo sapiens, Z-138) was less than 0.1 µM; with 3T3 cells (NIH3T3) it was 0.1 to 5 µM.

Regarding `Nc1ccc(CNC(=O)NCc2cc3cc(-c4ccc(C(=O)N5CCC(F)(F)CC5)cc4)cc(C(F)(F)F)c3o2)cn1` [Compound 113, 1-((6-aminopyridin-3-yl)methyl)-3-((5-(4-(4,4-difluoropiperidine-1-carbonyl)phenyl)-7-(trifluoromethyl)benzofuran-2-yl)methyl)urea], the half-inhibitory concentration (IC50) with Z138 cells (Homo sapiens, Z-138) was greater than 10 µM; in the assay with 3T3 cells (NIH3T3), greater than 10 µM.

For `Nc1ccc(CNC(=O)NCc2cc3cc(-c4ccc(C(=O)N5CCC(F)(F)CC5)cc4)cc(-c4ccc(F)cc4)c3s2)cn1` [Compound 114, 1-((6-aminopyridin-3-yl)methyl)-3-((5-(4-(4,4-difluoropiperidine-1-carbonyl)phenyl)-7-(4-fluorophenyl)benzo[b]thiophen-2-yl)methyl)urea], the IC50 with Z138 cells (Homo sapiens, Z-138) is 5 to 10 µM; in the assay on 3T3 cells (NIH3T3), greater than 10 µM.

With `Nc1cc2c(cn1)CN(C(=O)NCc1cc3cc(-c4ccc(C(=O)N5CCC(F)(F)CC5)cc4)cc(-c4ccc(F)cc4)c3o1)C2` [Compound 115, 6-amino-N-((5-(4-(4,4-difluoropiperidine-1-carbonyl)phenyl)-7-(4-fluorophenyl)benzofuran-2-yl)methyl)-1H-pyrrolo[3,4-c]pyridine-2(3H)-carboxamide], the half-inhibitory concentration (IC50) in the assay with Z138 cells (Homo sapiens, Z-138) is less than 0.1 µM; in the assay on 3T3 cells (NIH3T3) it was 0.1 to 5 µM.

In the case of `Nc1ccc(CNC(=O)NCc2cc3cc(-c4ccc(C(=O)N5CCC(F)(F)CC5)cn4)cc(-c4ccc(F)cc4)c3o2)cn1` [Compound 116, 1-((6-aminopyridin-3-yl)methyl)-3-((5-(5-(4,4-difluoropiperidine-1-carbonyl)pyridin-2-yl)-7-(4-fluorophenyl)benzofuran-2-yl)methyl)urea], the IC50 was less than 0.1 µM in the assay on Z138 cells (Homo sapiens, Z-138) and 0.1 to 5 µM in the assay with 3T3 cells (NIH3T3).

For the compound `Nc1ccc(CNC(=O)NCc2cc3cc(-c4ccc(C(=O)N5CC(F)(F)C5)cc4)cc(C(F)(F)F)c3o2)cn1` [Compound 117, 1-((6-aminopyridin-3-yl)methyl)-3-((5-(4-(3,3-difluoroazetidine-1-carbonyl)phenyl)-7-(trifluoromethyl)benzofuran-2-yl)methyl)urea], the concentration for half-maximal inhibition (IC50) was 5 to 10 µM in the assay with Z138 cells (Homo sapiens, Z-138) and greater than 10 µM with 3T3 cells (NIH3T3).

`O=C(NCc1ccc(-c2ccc(-c3ccc(C(=O)N4CCC(F)(F)CC4)cc3)cc2-c2ccc(F)cc2)o1)N1Cc2ccncc2C1` [Compound 120, N-((5-(4-(4,4-difluoropiperidine-1-carbonyl)-4″-fluoro-[1,1′:3′,1″-terphenyl]-4′-yl)furan-2-yl)methyl)-1,3-dihydro-2H-pyrrolo[3,4-c]pyridine-2-carboxamide]: the IC50 with Z138 cells (Homo sapiens, Z-138) was less than 0.1 µM; with 3T3 cells (NIH3T3), greater than 10 µM.

With `O=C(NCC1Cc2cc(-c3ccc(C(=O)N4CCC(F)(F)CC4)cc3)cc(-c3ccc(F)cc3)c2O1)N1Cc2ccncc2C1` (stereo not shown) [Compound 122, N-((5-(4-(4,4-difluoropiperidine-1-carbonyl)phenyl)-7-(4-fluorophenyl)-2,3-dihydrobenzofuran-2-yl)methyl)-1,3-dihydro-2H-pyrrolo [3,4-c]pyridine-2-carboxamide], the IC50 with Z138 cells (Homo sapiens, Z-138) was less than 0.1 µM; with 3T3 cells (NIH3T3), less than 0.1 µM.

Consider `Nc1ccc(CNC(=O)NCC2Cc3cc(-c4ccc(C(=O)N5CCC(F)(F)CC5)cc4)cc(-c4ccc(F)cc4)c3O2)cn1` (stereo not shown) [Compound 123, 1-((6-aminopyridin-3-yl)methyl)-3-((5-(4-(4,4-difluoropiperidine-1-carbonyl)phenyl)-7-(4-fluorophenyl)-2,3-dihydrobenzofuran-2-yl)methyl)urea], for which the IC50 in the assay on Z138 cells (Homo sapiens, Z-138) was less than 0.1 µM; in the assay with 3T3 cells (NIH3T3), 0.1 to 5 µM.

With `Nc1ccc(CNC(=O)NCc2ccc(-c3ccc(-c4ccc(C(=O)N5CCC(F)(F)CC5)cc4)cc3-c3ccc(F)cc3)o2)cn1` [Compound 125, 1-((6-aminopyridin-3-yl)methyl)-3-((5-(3-(4-fluorophenyl)-4′-(4,4-difluoropiperidine-1-carbonyl)biphenyl-4-yl)furan-2-yl)methyl)urea], the IC50 was less than 0.1 µM in the assay on Z138 cells (Homo sapiens, Z-138) and greater than 10 µM with 3T3 cells (NIH3T3).
